The results in this text go back to ChEMBL document CHEMBL3637782, “GSK Tres Cantos Follow-up TB Screening Data” (2016).

Values after ≈ are worked out from the molar mass of the structure shown.

For series [1], the system named is Mycobacterium tuberculosis H37Rv. The series can be described thus: GSK_TB: Inhibition of the intracellular growth of Mycobacterium tuberculosis (pXC50). It counts as functional, ATCC25618.
Series [2] is described as follows: GSK_TB: Lipophilicity, log D of the compound at pH 7.4 by ChromlogD analysis. It counts as physicochemical. Particulars: buffer.
In series [3] the test system is Mycobacterium tuberculosis H37Rv. The series can be described thus: GSK_TB: Minimum inhibitory concentration against H37Rv stain of Mycobacterium tuberculosis using MABA method. It is filed as functional. Conditions: ATCC25618. Background: Alamar Blue is a resazurin reagent that responds to reducing activity.
In the next series the test system is HepG2. The series can be described thus: GSK_TB: The cytotoxicity against HepG2 cells expressed as IC50. It is filed as functional, cell-based. Particulars: Homo sapiens.
The nature of series [4]: GSK_TB: Kinetic solubility of the compound in phosphate buffered saline at pH 7.4 after 1 hr by CLND method. It is filed as physicochemical.
Series [5] in a line: GSK_TB: AVG_CHROM_LOGP. It is filed as physicochemical.

Turning to `O=C(NCc1ccco1)N1CCN(Cc2ccc3c(c2)CCO3)CC1`, in series [1], the pXC50 worked out at 5.8. Besides, the Lipophilicity in series [2] was 3.47; in series [5], 3.5941. In series [3], the MIC (commonly the least concentration at which growth counts as inhibited) turned out to be 2 µM (≈ 0.683 µg/mL). For the same molecule, the IC50 (usually the point on the concentration scale where inhibition reaches its midpoint) with HepG2 was greater than 100 µM. Moreover, the solubility (kinetic) – broadly, solubility judged after dilution from a stock solution rather than from solid – at 1 h in series [4] came out at 88 µg/mL (≈ 258 µM).

`O=C(NCc1ccco1)N1CCN(Cc2cccs2)CC1`: the pXC50 in series [1] amounted to 5.4. Also, the figures for the Lipophilicity in series [2] and in series [5] were 3.53 and 3.5288, respectively. The lowest concentration to inhibit growth in series [3] (MIC) was 2.5 µM (≈ 0.764 µg/mL). This molecule showed an IC50 in the series on HepG2 greater than 100 µM. The solubility (kinetic) at 1 h in series [4] was no less than 105 µg/mL.

In the case of `O=S(=O)(NCc1ccccc1)c1ccc(-c2cc3ccncc3cc2OC2CCNCC2)s1`, the pXC50 in series [1] stood at 5.4. Moreover, the Lipophilicity in series [2] was determined as 3.2; in series [5] it was 4.4101. Also, in series [3], 2.5 µM (≈ 1.2 µg/mL) was the least that counted as inhibitory (MIC). In the series with HepG2, it took 10 µM to reach half-maximal inhibition (IC50). This molecule also gave a kinetic solubility at 1 h in series [4] of 33 µg/mL (≈ 68.8 µM).

As for `O=C(Nc1nc2c(s1)CCCc1cccnc1-2)c1ccccc1C(F)(F)F`, the pXC50 in series [1] is recorded as 6.2. Besides, the Lipophilicity worked out at 5.26 in series [2] and 5.2587 in series [5]. The same molecule yielded an MIC in series [3] of 3.7 µM (≈ 1.44 µg/mL). The same molecule registered an IC50 in the series on HepG2 of 79 µM. Moreover, the solubility (kinetic) at 1 h in series [4] amounted to 9 µg/mL (≈ 23.1 µM).

`FC(F)(F)Oc1ccc(-c2cc3ccncc3cc2OC2CCNCC2)cc1` showed a pXC50 in series [1] of 5.5. Also, the values for the Lipophilicity in series [2] and in series [5] were 3.47 and 6.8742, respectively. This molecule gave an MIC in series [3] of 5 µM (≈ 1.94 µg/mL). For the same molecule, in the series with HepG2, the IC50 was 16 µM. In addition, the kinetic solubility at 1 h in series [4] came out at 82 µg/mL (≈ 211 µM).

On to `CCCCNCC1COc2ccc(OC)cc2C1=O` (stereo not drawn), for which, in series [1], the pXC50 is listed as 5.3. Also, the values for the Lipophilicity in series [2] and in series [5] were 2.99 and 5.6014, respectively. Moreover, in series [3], the MIC came to 5 µM (≈ 1.32 µg/mL). In the series with HepG2, this molecule came in with an IC50 of 12 µM. In addition, in series [4], the kinetic solubility at 1 h was 118 µg/mL (≈ 448 µM).

`Fc1ccc(Cc2nnc(-c3ccnc(Nc4ccc(OCCN5CCOCC5)cc4)n3)[nH]2)cc1` came in with a pXC50 in series [1] of 5.8. Moreover, the figures for the Lipophilicity in series [2] and in series [5] were 3.84 and 3.8389, respectively. Also, the MIC in series [3] was 5.6 µM (≈ 2.66 µg/mL). Further, half-maximal inhibition in the series with HepG2 (IC50) required 40 µM. In series [4], this molecule gave a kinetic solubility at 1 h of 69 µg/mL (≈ 145 µM).

`Cc1ccc2oc(SCC(=O)Nc3nccs3)nc2n1`: in series [1], the pXC50 is less than 4.3. For the same molecule, the Lipophilicity was found to be 3.01 in series [2] and 3.0066 in series [5]. For the same molecule, the MIC in series [3] is 5.6 µM (≈ 1.72 µg/mL). The molecule further showed an IC50 in the series on HepG2 of 40 µM. The molecule also returned a kinetic solubility at 1 h in series [4] of 31 µg/mL (≈ 101 µM).

In series [1], `COc1ccc(CCNC(=O)C2(n3cnnn3)CCCCC2)cc1` showed a pXC50 of 5.7. Moreover, the Lipophilicity in series [2] turned out to be 2.43; in series [5] it was 3.1698. Besides, inhibition of growth in series [3] (MIC) required 8 µM (≈ 2.64 µg/mL). The molecule further registered an IC50 in the series with HepG2 greater than 100 µM. For the same molecule, the kinetic solubility at 1 h in series [4] is no less than 226 µg/mL.

As for `O=C(Nc1nc(-c2ccccn2)cs1)N1CCC(Cc2ccc(F)cc2)CC1`, the pXC50 in series [1] worked out at 6.1. Also, the Lipophilicity in series [2] is recorded as 6.09; in series [5], 6.3357. In series [3], this molecule showed an MIC of 10 µM (≈ 3.96 µg/mL). The IC50 in the series on HepG2 is 25 µM. The same molecule returned a solubility (kinetic) at 1 h in series [4] of 4 µg/mL (≈ 10.1 µM).

As for `CCCCc1ccc(C(=O)Nc2nnc(S(=O)(=O)CCCC)s2)nc1`, the pXC50 in series [1] worked out at 5.6. Further, the values for the Lipophilicity in series [2] and in series [5] were 6.01 and 7.3965, respectively. In series [3], this molecule returned an MIC of 10 µM (≈ 3.83 µg/mL). In addition, the midpoint of inhibition in the series on HepG2, the IC50, lay at 20 µM. In series [4], this molecule gave a kinetic solubility at 1 h of 1.5 µg/mL (≈ 3.92 µM).

Consider `CCOc1cc2ccccc2cc1C(=O)NC`, for which the pXC50 in series [1] is 5.3. In addition, the Lipophilicity turned out to be 4.43 in series [2] and 4.6549 in series [5]. This molecule also had an MIC in series [3] of 10 µM (≈ 2.29 µg/mL). In addition, the IC50 in the series with HepG2 is greater than 100 µM. In series [4], the solubility (kinetic) at 1 h is 64 µg/mL (≈ 279 µM).

With `COc1ccc(CN2CCN(C(=O)/C=C/c3csc(C)n3)CC2)cc1`, the pXC50 in series [1] amounted to 5.7. In addition, the Lipophilicity is 4.13 in series [2] and 4.1653 in series [5]. The MIC in series [3] amounted to 10 µM (≈ 3.57 µg/mL). It took 80 µM to reach half-maximal inhibition in the series with HepG2 (IC50). The molecule also yielded a kinetic solubility at 1 h in series [4] of no less than 116 µg/mL.
